Data reported in publication PMC4579271, “Inflammatory Signaling by NOD-RIPK2 Is Inhibited by Clinically Relevant Type II Kinase Inhibitors” (Chemistry & Biology, 2015).

Legend:
[1] = system: IκBα degradation in THP-1 cells; experiment: Immunoblot of IκBα in L18-MDP-stimulated THP-1 cells; assay type: cell-based, human; conditions: 100 nM pre-treatment, 200 ng/ml L18-MDP
Method: (§1) Figure 5 Inhibition of NOD2-Dependent Ubiquitination and Signaling (A–C) THP-1 cells were pre-treated with kinase inhibitors or DMSO for 30 min and stimulated with 200 ng/ml L18-MDP (A, B) or TNF (C) as indicated. At the indicated time points, cells were lysed and ubiquitinated proteins were isolated using TUBE reagent. The isolated ubiquitinated proteins and input material were analyzed by immunoblotting. See also Figure S6.
(§2) The ubiquitin conjugates were purified using GST-Tandem Ubiquitin Binding Entities (TUBE; [Fiil et al., 2013]). In brief, treated THP-1 cells (6–10 × 10^6) were washed with PBS and lysed in 400 μl of ice-cold lysis buffer containing TUBE on ice for 30 min. Cleared lysates were incubated with Glutathione Sepharose 4B resin (Amersham) with agitation at 4°C overnight. The beads were washed four times with PBS-Tween (0.1%) and the bound proteins were released by heating the beads in reducing SDS sample buffer. The samples were resolved on pre-cast gradient gels (NuPage; Life Technologies) in MOPS running buffer and subjected to immunoblotting.

[2] = system: NF-κB activation in HEKBlue cells expressing NOD2; experiment: HEKBlue NF-κB-SEAP reporter activation assay, L18-MDP stimulation; conditions: Homo sapiens, HEK-Blue, 8 h, read-out: NFκB activity EC50
NOD2-RIPK2 interaction = NOD2-RIPK2 interaction (Homo sapiens, UniProt O43353); experiment: HA-immunoprecipitation of RIPK2 with inducible HA-NOD2 in U2OS cells; conditions: 100 nM, 24 hr
NOD2-RIPK2 interaction, sequence (O43353 whole entry): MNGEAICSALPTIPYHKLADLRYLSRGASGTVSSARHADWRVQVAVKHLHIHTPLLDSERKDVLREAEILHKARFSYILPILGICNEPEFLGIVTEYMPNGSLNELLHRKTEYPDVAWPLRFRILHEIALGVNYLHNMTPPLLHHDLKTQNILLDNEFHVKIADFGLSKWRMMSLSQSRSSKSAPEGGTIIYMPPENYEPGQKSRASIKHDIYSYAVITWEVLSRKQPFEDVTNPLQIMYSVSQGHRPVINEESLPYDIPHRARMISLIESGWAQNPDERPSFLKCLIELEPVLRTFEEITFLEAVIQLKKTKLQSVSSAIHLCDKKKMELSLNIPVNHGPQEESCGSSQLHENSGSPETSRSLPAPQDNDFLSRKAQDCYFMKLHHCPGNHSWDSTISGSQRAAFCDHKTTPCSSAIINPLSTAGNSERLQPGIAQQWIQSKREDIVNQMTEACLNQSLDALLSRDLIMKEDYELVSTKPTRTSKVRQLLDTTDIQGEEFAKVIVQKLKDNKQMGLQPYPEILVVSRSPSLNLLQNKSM
NOD2-RIPK2 interaction, sequence (Q9HC29 whole entry partner): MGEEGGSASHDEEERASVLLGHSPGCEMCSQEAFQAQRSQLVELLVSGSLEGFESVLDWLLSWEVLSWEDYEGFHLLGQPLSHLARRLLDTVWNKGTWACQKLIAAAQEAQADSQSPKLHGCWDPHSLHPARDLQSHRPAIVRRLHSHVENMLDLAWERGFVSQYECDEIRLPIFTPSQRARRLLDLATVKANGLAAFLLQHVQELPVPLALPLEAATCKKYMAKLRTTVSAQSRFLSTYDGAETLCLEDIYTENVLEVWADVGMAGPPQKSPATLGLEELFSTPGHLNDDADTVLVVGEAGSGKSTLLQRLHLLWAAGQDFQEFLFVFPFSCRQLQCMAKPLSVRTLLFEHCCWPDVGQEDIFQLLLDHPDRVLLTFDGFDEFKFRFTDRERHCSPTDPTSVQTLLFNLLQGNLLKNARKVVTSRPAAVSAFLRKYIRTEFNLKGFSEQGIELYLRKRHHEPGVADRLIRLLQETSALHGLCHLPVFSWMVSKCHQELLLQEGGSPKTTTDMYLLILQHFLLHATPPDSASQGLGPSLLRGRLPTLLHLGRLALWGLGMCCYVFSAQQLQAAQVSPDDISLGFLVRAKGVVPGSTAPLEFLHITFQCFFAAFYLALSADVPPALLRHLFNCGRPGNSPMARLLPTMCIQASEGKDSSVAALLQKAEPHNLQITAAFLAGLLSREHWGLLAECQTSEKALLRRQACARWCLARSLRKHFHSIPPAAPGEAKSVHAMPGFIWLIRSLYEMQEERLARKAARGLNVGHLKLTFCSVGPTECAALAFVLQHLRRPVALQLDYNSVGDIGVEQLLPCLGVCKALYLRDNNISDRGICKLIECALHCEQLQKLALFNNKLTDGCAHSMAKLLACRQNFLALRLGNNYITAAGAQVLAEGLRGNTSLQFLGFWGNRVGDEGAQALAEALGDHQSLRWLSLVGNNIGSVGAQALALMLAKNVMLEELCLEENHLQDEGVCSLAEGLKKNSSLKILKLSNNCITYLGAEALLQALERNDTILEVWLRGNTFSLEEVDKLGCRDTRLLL

[3] = system: phospho-Ser176-RIPK2 (p-RIPK2) in NOD2-expressing HEK293 cells; experiment: Western blot of phospho-Ser176-RIPK2 in HEKBlue cells after L18-MDP
RIPK1 = target: T1, RIPK1 (Homo sapiens, UniProt Q13546); set-up: method as in Najjar et al., 2015; conditions: ref Najjar et al., 2015; cited from earlier work
T1 sequence (Q13546 1-671): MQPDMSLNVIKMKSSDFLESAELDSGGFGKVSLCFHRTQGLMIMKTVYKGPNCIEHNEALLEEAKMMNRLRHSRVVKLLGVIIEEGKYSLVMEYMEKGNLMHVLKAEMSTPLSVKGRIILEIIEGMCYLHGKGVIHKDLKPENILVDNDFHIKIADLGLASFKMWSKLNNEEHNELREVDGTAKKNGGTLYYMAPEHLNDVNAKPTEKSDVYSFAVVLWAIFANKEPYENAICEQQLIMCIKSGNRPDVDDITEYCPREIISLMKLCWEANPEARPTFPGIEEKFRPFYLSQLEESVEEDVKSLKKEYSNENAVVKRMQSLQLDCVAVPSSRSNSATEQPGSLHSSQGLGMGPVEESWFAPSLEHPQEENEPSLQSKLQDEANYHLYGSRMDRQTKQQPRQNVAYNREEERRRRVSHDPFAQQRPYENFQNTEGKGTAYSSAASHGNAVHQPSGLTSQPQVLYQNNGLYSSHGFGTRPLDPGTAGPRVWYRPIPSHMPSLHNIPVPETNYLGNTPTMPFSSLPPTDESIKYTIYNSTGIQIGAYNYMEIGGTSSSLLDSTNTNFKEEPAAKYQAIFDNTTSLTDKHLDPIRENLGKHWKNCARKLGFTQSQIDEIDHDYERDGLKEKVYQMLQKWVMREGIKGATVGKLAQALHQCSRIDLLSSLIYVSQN

RIPK3 = RIPK3 (Homo sapiens, UniProt Q9Y572); set-up: method as in Najjar et al., 2015; conditions: ref Najjar et al., 2015; cited from earlier work
RIPK3, sequence (Q9Y572 whole entry, species assumed): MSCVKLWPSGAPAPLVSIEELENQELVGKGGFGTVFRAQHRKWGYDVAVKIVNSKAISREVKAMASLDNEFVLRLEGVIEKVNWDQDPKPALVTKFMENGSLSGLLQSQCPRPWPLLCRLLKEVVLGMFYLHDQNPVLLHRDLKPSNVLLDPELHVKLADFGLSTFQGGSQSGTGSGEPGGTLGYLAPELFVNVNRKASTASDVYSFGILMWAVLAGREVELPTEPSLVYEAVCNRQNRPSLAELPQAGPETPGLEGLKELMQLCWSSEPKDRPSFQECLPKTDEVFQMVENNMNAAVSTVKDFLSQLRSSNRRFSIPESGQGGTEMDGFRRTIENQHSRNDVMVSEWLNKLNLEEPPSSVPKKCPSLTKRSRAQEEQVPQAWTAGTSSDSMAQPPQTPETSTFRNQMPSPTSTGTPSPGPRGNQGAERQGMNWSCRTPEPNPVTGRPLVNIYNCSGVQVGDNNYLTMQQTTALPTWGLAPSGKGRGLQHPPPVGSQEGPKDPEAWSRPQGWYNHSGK

[4] = system: RIPK1 ubiquitination and IκBα degradation in THP-1 cells; experiment: TUBE purification and immunoblot, TNF-stimulated THP-1 cells; assay type: cell-based, human; conditions: TNF treatment
Method: as §1, §2

[5] = system: TNF production by LPS stimulation in primary human monocytes; conditions: 200 ng/ml LPS
[6] = set-up: method as in Cortes et al., 2013; conditions: clinical use; ref Cortes et al., 2013; cited from earlier work
[7] = system: NOD2-dependent TNF production in primary human monocytes; experiment: Flow cytometry of intracellular TNF in primary human monocytes, L18-MDP; assay type: cell-based
Method: Experimental conditions are measured in 4–5 healthy donors. […] Gray background indicates range without inhibitors. See also Figure S7.

With Cc1ccc(C(=O)Nc2ccc(CN3CCN(C)CC3)c(C(F)(F)F)c2)cc1C#Cc1cnc2cccnn12 [ponatinib, 3-[2-(imidazo[1,2-b]pyridazin-3-yl)ethynyl]-4-methyl-N-{4-[(4-methylpiperazin-1-yl)methyl]-3-(trifluoromethyl)phenyl}benzamide] the “downstream degradation of IκBα” value [1] was “blocked”, the EC50 [2] was 0.8 nM and the NOD2-RIPK2 interaction (NOD2-RIPK2 interaction) was “stably maintained”. The “concentration completely blocking RIPK2 phosphorylation” value [3] was 10 nM, the “inhibition of RIPK1 kinase activity in necroptosis” value (RIPK1) was “efficient inhibitor” and the “inhibition of RIPK3 kinase activity in necroptosis” value (RIPK3) was “efficient inhibitor”. For the same compound, the “ubiquitination of RIPK1 or IκBα degradation” value [4] was “no obvious effects”, the “concentration attenuating TNF production by LPS stimulation” value [5] was 1 µM and the adverse events [6] was “serious adverse events including vascular thrombosis”. For the same compound, the “concentration completely abrogating NOD2-dependent TNF production” value [7] was 10 nM.
